# In ChEMBL document CHEMBL5252614, “Dioncophyllidine E: The first configurationally semi-stable, 7,3'-coupled naphthyldihydroisoquinoline alkaloid, from Ancistrocladus abbreviatus, with antiausterity activity against PANC-1 human pancreatic cancer cells” (2023):
# What was measured:
# Type in all cases: functional
# [1] = tested on: PANC-1; assay: Inhibition of colony formation in human PANC1 cells assessed as colony area at 20 uM incubated for 24 hrs in normal nutrient DMEM media followed by replacement with fresh media and further incubated for 10 days (reference value: 52%); design: scale not given: the % may be the effect or the level left
# [2] = tested on: PANC-1; assay: Inhibition of colony formation in human PANC1 cells assessed as colony area at 40 uM incubated for 24 hrs in normal nutrient DMEM media followed by replacement with fresh media and further incubated for 10 days (reference value: 52%); design: scale not given: the % may be the effect or the level left
# [3] = tested on: PANC-1; assay: Induction of cell death in human PANC-1 cells assessed as increase in cells emitting red fluorescence incubated for 24 hrs in nutrient-deprived medium by ethidium bromide/acridine orange staining based analysis; conditions: dose 10-20 µM
# [4] = tested on: PANC-1; assay: Inhibition of colony formation in human PANC1 cells assessed as colony area at 10 uM incubated for 24 hrs in normal nutrient DMEM media followed by replacement with fresh media and further incubated for 10 days (reference value: 52%); design: scale not given: the % may be the effect or the level left
# [5] = tested on: PANC-1; assay: Induction of cell death in human PANC-1 cells assessed as alteration in cell morphology incubated for 24 hrs in nutrient-deprived medium by ethidium bromide/acridine orange staining based analysis; conditions: dose 10-20 µM
# [6] = tested on: PANC-1; assay: Preferential cytotoxicity against human PANC-1 cells in nutrient-deprived medium
structure (smiles),measurement,setting,value
COc1cccc2cc(C)c(-c3ccc4c(c3O)C(C)=N[C@H](C)C4)c(O)c12,Activity,[1],38%
same,Activity,[2],24%
same,Activity,[3],Dose-Dependent Effect
same,Activity,[4],47%
same,Activity,[5],Dose-Dependent Effect
same,PC50,[6],7.4 µM
